From US20140357512A1, “HISTONE DEACETYLASE (HDAC) BIOMARKERS IN MULTIPLE MYELOMA” (priority 2013, published 2014)

Test system: human myeloma cell line MM.1S
Test: SILAC acetylated-lysine peptide profiling, HDAC inhibitor vs DMSO (light/heavy ratio)
Format: cell-based
Excerpt: An embodiment of the invention comprises utilizing the SILAC method in order to quantitate changes in protein expression between two or more populations of cells. The SILAC method is a technique based on mass spectrometry that detects differences in protein abundance among samples using non-radioactive isotopic labeling. The SILAC method is known in the art, and described in detail in Ong et al., “Stable Isotope Labeling by Amino Acids in Cell Culture, SILAC, as a Simple and Accurate Approach to Expression Proteomics”, Molecular & Cellular Proteomics, vol. 1, pp. 376-386 (2002), which is incorporated herein by reference in its entirety.
Briefly, the SILAC method involves growing two populations of cells in cell culture. The first population of cells is grown in growth media containing normal amino acids (“normal media”). The second population of cells is grown in media lacking a standard essential amino acid (such as lysine), but is then supplemented with a non-radioactive, isotopically labeled form of that essential amino acid (such as lysine labeled with ^13C atoms, rather than normal ^12C atoms), which is called “heavy media”. When the two populations of cells are each growing in the medium, they incorporate the amino acids into all of their proteins. The growth of cells maintained in the heavy media is no different from that in normal media. All peptides containing the heavy amino acids are heavier than their normal counterparts. The cells from each of the two populations of cells are lysed. The lysates from each of the two cell populations are then combined. The combined cell lysates are then analyzed by mass spectrometry. Pairs of chemically identical peptides of different stable isotope composition can be differentiated in a mass spectrometer due to their difference in mass. The ratio of peak intensities in the mass spectrum for such peptide pairs reflects the abundance ratio for the two proteins.
This example describes SILAC studies that were performed to compare the effects of three different HDAC inhibitors (Compound A, Compound B, and tubastatin A) to a control on a human multiple myeloma cell line. The HDAC inhibitors were also compared amongst themselves to determine differences in their effects.
A human myeloma cell line MM.1S was grown using either ^12C (light) or ^13C (heavy) lysine containing culture medium. The “heavy” cells were treated with DMSO as the control, and the “light” cells were treated with a single HDAC inhibitor at 37° C. for 6 hours. The heavy and light cells were lysed, and the lysates were mixed in 1:1 ratio and digested with the protease trypsin. The acetylated lysine containing peptides (due to the action of the HDAC inhibitor) in the digested peptide pool were captured by a non-specific anti-acetylated lysine antibody cocktail (the antibodies identify both light and heavy acetylated peptides), and subjected to mass spectrometry analysis in order to identify thousands of individual peptides.
Thousands of peptides were identified in pairs (^12C and ^13C) due to their known mass differences. The amino acid sequence and quantitative ratio (Light/Heavy) of a given peptide in two differentially treated cell lysates were then determined and annotated with their possible protein (gene) sources.
As stated above, three HDAC inhibitors (Compound A, Compound B, and Tubastatin A) were used. Thus, the SILAC method was performed three times, with a different HDAC inhibitor compared to a control each time. Accordingly, there are three pairs of quantitative data in the table below, i.e., Compound A:DMSO, Compound B:DMSO, and Tubastatin A:DMSO. A cut-off of 1.30 fold of change (increase or decrease) was then used to determine “changed” or “+” in the table, and any peptides with a fold of change less than 1.3 fold were determined to be “unchanged” or “0” in the table. Those peptides that were not identified were marked as “NA” in the table. […]

Compound: O=C(NO)c1cnc(NC2(c3cccc(F)c3)CCCCC2)nc1 [Compound B, 2-((1-(3-fluorophenyl)cyclohexyl)amino)-N-hydroxypyrimidine-5-carboxamide]
- L/H ratio of acetylated peptide PDPAK(ac)SAPAPK(ac)K (SEQ ID NO: 16) (HIST1H2BO [6:12], log 2 scale, drug vs DMSO): 0.66
- light to heavy ratio (L/H ratio) of acetylated peptide SLNLK(ac)HIK (SEQ ID NO: 607) (HLA-B associated transcript 1 [188], gene SNORD84, DDX39B, inhibitor:DMSO): 0.00 log 2
- L/H ratio of acetylated peptide K(ac)[…] (SEQ ID NO: 42) (HMGB2 [30], log 2 scale, drug vs DMSO): 0.00
- L/H ratio of acetylated peptide (HMVMQK(ac)LLR (SEQ ID NO: 438), Isoform 1 of Poly(U)-binding-splicing factor PUF60 [454], PUF60): 0.71 log 2
- L/H ratio of acetylated peptide RGEEGHDPK(ac)EPEQLR (SEQ ID NO: 43) (HNRNPA3 [29], log 2 scale, drug vs DMSO): 0.00
- L/H ratio of acetylated peptide […](ac)WQSLK (SEQ ID NO: 44) (HNRNPM [83], log 2 scale, drug vs DMSO): 0.00
- L/H ratio of acetylated peptide AAEVLNK(ac)HSLSGRPLK (SEQ ID NO: 3) (HNRNPM [134], log 2 scale, drug vs DMSO): −0.74
- L/H ratio of acetylated peptide VK(ac)VLFVR (SEQ ID NO: 45) (HNRNPR [341], log 2 scale, drug vs DMSO): 0.00
- L/H ratio of acetylated peptide […](ac)YSR (SEQ ID NO: 46) (HNRNPU [246], log 2 scale, drug vs DMSO): 0.00
- L/H ratio of acetylated peptide TTWVTK(ac)HAAENPGK (SEQ ID NO: 47) (HNRNPU [497], log 2 scale, drug vs DMSO): 0.00
- L/H ratio of acetylated peptide NK(ac)EIFLR (SEQ ID NO: 52) (HSP90B1 [97], log 2 scale, drug vs DMSO): 0.00
- L/H ratio of acetylated peptide […](ac)IR (SEQ ID NO: 49) (HSP90B1 [114], log 2 scale, drug vs DMSO): 0.00
- L/H ratio of acetylated peptide ETLQQHK(ac)LLK (SEQ ID NO: 50) (HSP90B1 [455], log 2 scale, drug vs DMSO): 0.00
- L/H ratio of acetylated peptide IADDK(ac)YNDTFWK (SEQ ID NO: 51) (HSP90B1 [479], log 2 scale, drug vs DMSO): 0.00
- L/H ratio of acetylated peptide […](ac)R (SEQ ID NO: 54) (HSPA5 [96], log 2 scale, drug vs DMSO): 0.00
- L/H ratio of acetylated peptide […](ac)R (SEQ ID NO: 55) (HSPA8 [71], log 2 scale, drug vs DMSO): 0.00
- L/H ratio of acetylated peptide (HSPEDPEK(ac)YSCFALFVK (SEQ ID NO: 432), Isoform 1 of DNA-dependent protein kinase catalytic subunit [700], PRKDC): −0.41 log 2
- L/H ratio of acetylated peptide (HTENVAK(ac)[…] (SEQ ID NO: 384), Transcriptional repressor CTCF [436], CTCF): −0.66 log 2
- light to heavy ratio (L/H ratio) of acetylated peptide […](ac)R (SEQ ID NO: 267) (Heat shock 70 kDa protein 1A/1B [71], HSPA1B, HSPA1A, drug:DMSO): 0.00 log 2
- light to heavy ratio (L/H ratio), log 2 scale, acetylated peptide TEMDWVLK(ac)[…] (SEQ ID NO: 797) (Heterogeneous nuclear ribonucleoprotein F [98], gene HNRNPF, drug:DMSO): 0.00
- light to heavy ratio (L/H ratio) of acetylated peptide YEK(ac)DIAAYR (SEQ ID NO: 595) (High mobility group protein B2 [157], gene HMGB2, inhibitor:DMSO): 0.00 log 2
- light to heavy ratio (L/H ratio), log 2 scale, acetylated peptide K(ac)AINK(ac)AQK (SEQ ID NO: 793) (Histone H2B type 1-M [17:21], gene HIST1H2BM, drug:DMSO): 0.00
- light to heavy ratio (L/H ratio) of acetylated peptide PEPAK(ac)SAPAPK(ac)K (SEQ ID NO: 309) (Histone H2B type 2-E [6:12], HIST2H2BE, drug:DMSO): 0.00 log 2
- light to heavy ratio (L/H ratio) of acetylated peptide K(ac)STGGK(ac)APR (SEQ ID NO: 310) (Histone H3.2 [10:15], HIST2H3D, HIST2H3A, HIST2H3C, drug:DMSO): 0.00 log 2
- light to heavy ratio (L/H ratio) of acetylated peptide GK(ac)GGK(ac)GLGK (SEQ ID NO: 311) (Histone H4 [6:9], HIST2H4B, HIST1H4C and other H4 genes, drug:DMSO): 0.00 log 2
- light to heavy ratio (L/H ratio) of acetylated peptide GLGK(ac)GGAK(ac)R (SEQ ID NO: 312) (Histone H4 [13:17], HIST2H4B, HIST1H4C and other H4 genes, drug:DMSO): 0.00 log 2
- light to heavy ratio (L/H ratio) of acetylated peptide GLGK(ac)GGAKR (SEQ ID NO: 313) (Histone H4 [13], HIST2H4B, HIST1H4C and other H4 genes, drug:DMSO): 0.00 log 2
- light to heavy ratio (L/H ratio) of acetylated peptide DGLQNEK(ac)NIVSTPVK (SEQ ID NO: 268) (Hydroxymethylglutaryl-CoA lyase mitochondrial [48], HMGCL, drug:DMSO): 0.00 log 2
- light to heavy ratio (L/H ratio) of acetylated peptide K(ac)[…] (SEQ ID NO: 594) (Hydroxymethylglutaryl-CoA lyase mitochondrial [137], gene HMGCL, inhibitor:DMSO): 0.00 log 2
- L/H ratio of acetylated peptide (IAVEAQNK(ac)YER (SEQ ID NO: 457), Nucleoprotein TPR [1081], TPR): 0.63 log 2
- L/H ratio of acetylated peptide (IDYGEYMDK(ac)NNVR (SEQ ID NO: 454), Single-stranded DNA-binding protein mitochondrial [122], SSBP1): −0.52 log 2
- light to heavy ratio (L/H ratio) of acetylated peptide, log 2 scale (IGK(ac)[…] (SEQ ID NO: 236), Thioredoxin domain-containing protein 5 [244], TXNDC5, MUTED, MUTED-TXNDC5): 0.00
